Data reported in PubChem BioAssay (NCI).
“And” between values parts separate entries of the source, which are not always exact repeats. Equal values may be shown once.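 Where inhibition never reached the appropriate level, the endpoint shown equals the highest concentration tested. Otherwise, values were interpolated linearly from a five-concentration, 48-hour dose response in 96-well plates. GI50: concentration for 50% inhibition of growth. TGI: total growth inhibition.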

Experiments:
Assay in all cases: NCI anticancer screen, dose series, 48 h
ACHN renal = test system: ACHN renal
IGROV1 ovarian = test system: IGROV1 ovarian
A549 NSCLC = test system: A549 NSCLC
A498 renal = test system: A498 renal
CAKI-1 renal = test system: CAKI-1 renal
U251 CNS = test system: U251 CNS
HCT-116 colon = test system: HCT-116 colon
HOP-62 NSCLC = test system: HOP-62 NSCLC
NCI-H226 lung = test system: NCI-H226 lung
HCC-2998 colon = test system: HCC-2998 colon

| SMILES | TGI (ACHN renal) [µM] | TGI (IGROV1 ovarian) | TGI (A549 NSCLC) | TGI (A498 renal) | TGI (CAKI-1 renal) | TGI (U251 CNS) | TGI (HCT-116 colon) [µM] | TGI (HOP-62 NSCLC) | TGI (NCI-H226 lung) | TGI (HCC-2998 colon) | GI50 (IGROV1 ovarian) | GI50 (A549 NSCLC) | GI50 (CAKI-1 renal) [µM] | GI50 (NCI-H226 lung) | GI50 (U251 CNS) [µM] |
| --- | --- | --- | --- | --- | --- | --- | --- | --- | --- | --- | --- | --- | --- | --- | --- |
| CCC1OC2(C)CC(C#N)(C#N)C1(C#N)C(=N)O2 (configuration not stated) | > 100 | > 100 µM | > 100 µM | > 100 µM | > 100 µM | > 100 µM | > 100 |  |  |  |  |  |  |  |  |
| Cc1ccc(N=Nc2c(O)ccc3ccccc23)c(C)c1 |  | > 100 µM | > 100 µM | > 100 µM | > 100 µM | > 100 µM | > 100 | > 100 µM | > 100 µM |  |  |  |  |  |  |
| O=C(Oc1cncc(Cl)c1)c1cc2ccccc2sc1=O | > 100 | > 100 µM | > 100 µM |  | > 100 µM | > 100 µM | > 100 | > 100 µM | 57.1 µM | > 100 µM |  |  |  |  |  |
| O=C(CCC(NC(=O)OCc1ccccc1)C(=O)OCc1ccccc1)Nc1cccc(OCc2ccccc2)c1 (configuration not stated) | > 100 | 71.1 µM | > 100 µM |  | > 100 µM | > 100 µM | 36.4 | 60.1 µM | > 100 µM | > 100 µM |  |  |  |  |  |
| O=C(NNC(=O)c1ccc(Cl)cc1NC(=O)C12CC3CC(CC(C3)C1)C2)c1ccc(Cl)cc1 | 51.6 | 32.7 µM | 42.8 µM |  | 73.6 µM | 45.4 µM | 58.1 | 44.4 µM | 65.1 µM | 33.4 µM |  |  |  |  |  |
| Cc1c(C(=O)O)sc2nc[nH]c(=O)c12 | > 100 | > 100 µM | > 100 µM |  | > 100 µM | > 100 µM | > 100 | > 100 µM | > 100 µM | > 100 µM |  |  |  |  |  |
| COC(=O)c1ccc(C)cc1C1CN=NC12Cc1cccc(C)c1C2=O (configuration not stated) | > 100 | > 100 µM | > 100 µM |  | > 100 µM | > 100 µM | > 100 | > 100 µM | 73.6 µM | > 100 µM |  |  |  |  |  |
| O=Cc1c2c(cc3c1CC1(C3)Cc3cc4c(c(C=O)c3C1)CCC4)CCC2 | 43.6 | > 100 µM | 87.5 µM | 84.7 µM |  | 38.4 µM | 33.7 | 51.4 µM | > 100 µM | > 100 µM |  |  |  |  |  |
| Cc1noc(-c2ccc(C(=O)O)[nH]2)c1Br | > 100 | > 100 µM | > 100 µM | > 100 µM | > 100 µM | > 100 µM | > 100 | 77.3 µM |  | > 100 µM |  |  |  |  |  |
| Cc1c2oc(=O)c(C#N)cc2c2ccccn12 | > 100 | > 100 µM | > 100 µM | > 100 µM | > 100 µM | > 100 µM | > 100 |  | > 100 µM | > 100 µM |  |  |  |  |  |
| CCN(CC)CC[n+]1ccc2c(C)c3[nH]c4ccccc4c3c(C)c2c1 | 32.8 | 3.45 µM and 11.2 µM and 5.33 µM | 5.22 µM and 5.45 µM and 8.14 µM | 25.2 µM and 28.8 µM and 17.9 µM | 10.3 µM and > 38.3 µM and 7.08 µM | 1.3 µM and 5.1 µM and 1.63 µM |  | 3.46 µM and 7.99 µM and 4.74 µM | 1.89 µM and 2.89 µM and 0.693 µM | 1.52 µM and 1.43 µM and 1.97 µM | 0.365 µM and 1.21 µM and 0.786 µM | 0.466 µM and 0.498 µM and 0.951 µM | 8.97 | 0.346 µM and 0.529 µM and 0.0944 µM | 0.25 |
| C[C@@H]([C@H]1CC[C@@]2(C)[C@@H]3CC[C@@H]4C(=CC3=CC[C@]12C)CC[C@H](N(C)C)C4(C)C)N(C)C | > 100 | > 100 µM |  |  | > 100 µM | > 100 µM | > 100 | > 100 µM | > 100 µM | > 100 µM |  |  |  |  |  |
| CSCSCC(CO)NC(=O)/C=C\c1c(C)[nH]c(=O)[nH]c1=O (configuration not stated) |  | 320 µM | 375 µM | 229 µM | 33.3 µM | 201 µM | 96.4 | 246 µM | 309 µM | 52.9 µM |  |  | 2.04 | 49.8 µM |  |
| Clc1cc(Cl)nc(Nc2ccc3c(c2)CCC3)n1 | > 100 | 72.3 µM | > 100 µM | > 100 µM | 75.7 µM | > 100 µM | > 100 |  | > 100 µM | 30.4 µM |  |  |  |  |  |
| COc1ccc(-c2nc(-c3cnccn3)n(C/C=C/c3ccccc3)n2)cc1 |  | > 100 µM | > 100 µM |  |  | > 100 µM | > 100 | 60.3 µM |  | > 100 µM |  |  |  |  |  |
| COc1ccc(NCn2nc(CCCCCCCCc3nn(CNc4ccc(OC)cc4)c(=S)o3)oc2=S)cc1 | > 100 |  | > 100 µM | > 100 µM | > 100 µM | > 100 µM | > 100 | > 100 µM | > 100 µM | > 100 µM |  |  |  |  |  |
| CC(=O)OC1C2CCC3CC2C2(SCCS2)C31 (configuration not stated) | > 100 | > 100 µM | > 100 µM | > 100 µM |  | > 100 µM | > 100 | > 100 µM | > 100 µM | > 100 µM |  |  |  |  |  |
| COc1cc(/C=C2\N=C(c3ccccc3)N(c3cc4cc(Sc5ccccc5)ccc4[nH]3)C2=O)ccc1O | > 50 | > 50 µM | > 50 µM |  | > 50 µM |  | > 50 |  | > 50 µM | > 50 µM |  |  |  |  |  |
| CC(=O)c1c(-c2ccco2)c(C#N)c(=S)n(C2OC(CO)C(O)C(O)C2O)c1C (configuration not stated) | > 100 | > 100 µM | > 100 µM |  | > 100 µM | > 100 µM | > 100 | > 100 µM |  |  |  |  |  |  |  |
| CCOC(=O)c1cnc2n(c1=O)[C@H]1CCCC[C@@H]1N2 | > 100 | > 100 µM | > 100 µM | > 100 µM | > 100 µM | > 100 µM | > 100 |  | > 100 µM | > 100 µM |  |  |  |  |  |
| CC(C)(C)OC(=O)NCC(c1c[nH]c2ccccc12)c1c[nH]c2ccccc12 | > 100 | 26.3 µM | 29.2 µM | > 100 µM | 29.1 µM | 29.8 µM | 30.4 | 37 µM | 44 µM |  |  |  |  |  |  |
| C[C@@H]1C[C@@H]2OC(=O)[C@]3(C)[C@H]2[C@@H](OC3(C)O)[C@]2(C)C(=O)C=C[C@@H]12 (some centres not stated) | 45 |  | > 100 µM | 70.6 µM | 62.1 µM | > 100 µM | 37.6 | > 100 µM | > 100 µM | 35.1 µM |  |  |  |  |  |
| COc1c(NC(C)=O)c2ccccc2c2ccccc12 | > 100 | > 100 µM | > 100 µM | > 100 µM |  | > 100 µM | > 100 | > 100 µM | > 100 µM |  |  |  |  |  |  |
